Reference: ChEMBL document CHEMBL4308841, “Synthesis, in vitro antiproliferative activity, and kinase inhibitory effects of pyrazole-containing diarylureas and diarylamides” (Eur J Med Chem, 2018)

Assays:
[1] = system: NCI-H226; experiment: Growth inhibition of human NCI-H226 cells incubated for 48 hrs by sulforhodamine B assay; format: functional, cell-based; conditions: NCI-H226, 48 h
[2] = system: SW-620; experiment: Growth inhibition of human SW620 cells incubated for 48 hrs by sulforhodamine B assay; format: functional, cell-based; conditions: SW-620, 48 h
[3] = system: SF-295; experiment: Growth inhibition of human SF295 cells incubated for 48 hrs by sulforhodamine B assay; format: functional, cell-based; conditions: SF-295, 48 h
[4] = system: SNB-75; experiment: Growth inhibition of human SNB75 cells incubated for 48 hrs by sulforhodamine B assay; format: functional, cell-based; conditions: SNB-75, 48 h
[5] = system: SR; experiment: Growth inhibition of human SR cells assessed as cell growth at 0.01 uM incubated for 48 hrs by sulforhodamine B assay relative to control; format: functional; conditions: read-out: Activity
[6] = system: NCI-H322M; experiment: Growth inhibition of human NCI-H322M cells assessed as cell growth at 0.01 uM incubated for 48 hrs by sulforhodamine B assay relative to control; format: functional; conditions: read-out: Activity
[7] = system: U-251; experiment: Growth inhibition of human U251 cells assessed as cell growth at 0.01 uM incubated for 48 hrs by sulforhodamine B assay relative to control; format: functional; conditions: U-251, 48 h, read-out: Activity
[8] = system: M14; experiment: Growth inhibition of human M14 cells assessed as cell growth at 0.01 uM incubated for 48 hrs by sulforhodamine B assay relative to control; format: functional; conditions: M14, 48 h, read-out: Activity
[9] = system: MDA-MB-435; experiment: Growth inhibition of human MDA-MB-435 cells assessed as cell growth at 0.01 uM incubated for 48 hrs by sulforhodamine B assay relative to control; format: functional; conditions: MDA-MB-435, 48 h, read-out: Activity
[10] = system: MDA-MB-231; experiment: Growth inhibition of human MDA-MB-231 cells assessed as cell growth at 0.01 uM incubated for 48 hrs by sulforhodamine B assay relative to control; format: functional; conditions: MDA-MB-231, 48 h, read-out: Activity
[11] = system: SF-295; experiment: Growth inhibition of human SF295 cells assessed as cell growth at 0.1 uM incubated for 48 hrs by sulforhodamine B assay relative to control; format: functional; conditions: SF-295, 48 h, read-out: Activity
[12] = system: SF-539; experiment: Growth inhibition of human SF539 cells assessed as cell growth at 0.1 uM incubated for 48 hrs by sulforhodamine B assay relative to control; format: functional; conditions: SF-539, 48 h, read-out: Activity
[13] = system: OVCAR-4; experiment: Growth inhibition of human OVCAR4 cells assessed as cell growth at 0.1 uM incubated for 48 hrs by sulforhodamine B assay relative to control; format: functional; conditions: OVCAR-4, 48 h, read-out: Activity
[14] = system: SK-OV-3; experiment: Growth inhibition of human SKOV3 cells assessed as cell growth at 0.1 uM incubated for 48 hrs by sulforhodamine B assay relative to control; format: functional; conditions: SK-OV-3, 48 h, read-out: Activity
[15] = system: UO-31; experiment: Growth inhibition of human UO31 cells assessed as cell growth at 0.1 uM incubated for 48 hrs by sulforhodamine B assay relative to control; format: functional; conditions: UO-31, 48 h, read-out: Activity
[16] = system: PC-3; experiment: Growth inhibition of human PC3 cells assessed as cell growth at 0.1 uM incubated for 48 hrs by sulforhodamine B assay relative to control; format: functional; conditions: PC-3, 48 h, read-out: Activity
[17] = system: SF-268; experiment: Growth inhibition of human SF268 cells assessed as cell growth at 1 uM incubated for 48 hrs by sulforhodamine B assay relative to control; format: functional; conditions: SF-268, 48 h, read-out: Activity
[18] = system: SF-295; experiment: Growth inhibition of human SF295 cells assessed as cell growth at 1 uM incubated for 48 hrs by sulforhodamine B assay relative to control; format: functional; conditions: SF-295, 48 h, read-out: Activity
[19] = system: OVCAR-8; experiment: Growth inhibition of human OVCAR8 cells assessed as cell growth at 1 uM incubated for 48 hrs by sulforhodamine B assay relative to control; format: functional; conditions: OVCAR-8, 48 h, read-out: Activity
[20] = system: ACHN; experiment: Growth inhibition of human ACHN cells assessed as cell growth at 1 uM incubated for 48 hrs by sulforhodamine B assay relative to control; format: functional; conditions: read-out: Activity
[21] = system: UO-31; experiment: Growth inhibition of human UO31 cells assessed as cell growth at 1 uM incubated for 48 hrs by sulforhodamine B assay relative to control; format: functional; conditions: UO-31, 48 h, read-out: Activity
[22] = system: A549; experiment: Growth inhibition of human A549/ATCC cells assessed as cell growth at 100 uM incubated for 48 hrs by sulforhodamine B assay relative to control; format: functional; conditions: A549, 48 h, read-out: Activity
[23] = system: HCT-116; experiment: Growth inhibition of human HCT116 cells assessed as cell growth at 100 uM incubated for 48 hrs by sulforhodamine B assay relative to control; format: functional; conditions: HCT-116, 48 h, read-out: Activity
[24] = system: SF-268; experiment: Growth inhibition of human SF268 cells assessed as cell growth at 100 uM incubated for 48 hrs by sulforhodamine B assay relative to control; format: functional; conditions: SF-268, 48 h, read-out: Activity
[25] = system: MDA-MB-435; experiment: Growth inhibition of human MDA-MB-435 cells assessed as cell growth at 100 uM incubated for 48 hrs by sulforhodamine B assay relative to control; format: functional; conditions: MDA-MB-435, 48 h, read-out: Activity
[26] = system: SK-MEL-2; experiment: Growth inhibition of human SK-MEL-2 cells assessed as cell growth at 100 uM incubated for 48 hrs by sulforhodamine B assay relative to control; format: functional; conditions: SK-MEL-2, 48 h, read-out: Activity
[27] = system: OVCAR-4; experiment: Growth inhibition of human OVCAR4 cells assessed as cell growth at 100 uM incubated for 48 hrs by sulforhodamine B assay relative to control; format: functional; conditions: OVCAR-4, 48 h, read-out: Activity
[28] = system: OVCAR-5; experiment: Growth inhibition of human OVCAR5 cells assessed as cell growth at 100 uM incubated for 48 hrs by sulforhodamine B assay relative to control; format: functional; conditions: OVCAR-5, 48 h, read-out: Activity
[29] = system: CAKI-1; experiment: Growth inhibition of human Caki1 cells assessed as cell growth at 100 uM incubated for 48 hrs by sulforhodamine B assay relative to control; format: functional; conditions: CAKI-1, 48 h, read-out: Activity
[30] = system: Hs-578T; experiment: Growth inhibition of human Hs578T cells assessed as cell growth at 100 uM incubated for 48 hrs by sulforhodamine B assay relative to control; format: functional; conditions: read-out: Activity
[31] = read-out: pLC50 (the source's name) (converted)

COc1cc(Cl)cc(-c2nn(-c3cccc(NC(=O)Nc4cc(C(F)(F)F)cc(C(F)(F)F)c4)c3)cc2-c2ccncc2)c1
IC50 [1]: 700 nM
GI50 ([1]; read-out: GI50): 704 nM
LC50 ([1]; read-out: LC50): > 100000 nM
TGI ([1]; read-out: TGI): 5170 nM
GI50 ([1]; read-out: pGI50 (converted)): 708 nM
LC50 ([1]; read-out: pLC50 (converted)): > 100000 nM
TGI ([1]; read-out: pTGI (converted)): 5130 nM
IC50 [2]: 390 nM
GI50 ([2]; read-out: GI50): 300 nM
LC50 ([2]; read-out: LC50): 15 nM
TGI ([2]; read-out: TGI): 2000 nM
GI50 ([2]; read-out: pGI50 (converted)): 389 nM
LC50 ([2]; read-out: pLC50 (converted)): 15100 nM
TGI ([2]; read-out: pTGI (converted)): 2000 nM
IC50 [3]: 330 nM
GI50 ([3]; read-out: GI50): 332 nM
CC50 ([3]; read-out: LC50 (the source's name)): 63.7 nM
TGI ([3]; read-out: TGI): 1440 nM
GI50 ([3]; read-out: pGI50 (converted)): 331 nM
CC50 [3, 31]: 6310 nM
TGI ([3]; read-out: pTGI (converted)): 1450 nM
IC50 [4]: 850 nM
GI50 ([4]; read-out: GI50): 848 nM
TGI ([4]; read-out: TGI): 5830 nM
GI50 ([4]; read-out: pGI50 (converted)): 851 nM
CC50 [4, 31]: 70800 nM
TGI ([4]; read-out: pTGI (converted)): 5890 nM
growth at 0.01 µM [5]: 101%
growth at 0.01 µM [6]: 100%
growth at 0.01 µM [7]: 96%
growth at 0.01 µM [8]: 96%
growth at 0.01 µM [9]: 97%
growth at 0.01 µM [10]: 97%
growth at 0.1 µM [11]: 91%
growth at 0.1 µM [12]: 102%
growth at 0.1 µM [13]: 97%
growth at 0.1 µM [14]: 105%
growth at 0.1 µM [15]: 75%
growth at 0.1 µM [16]: 91%
growth at 1 µM [17]: 37%
growth at 1 µM [18]: 12%
growth at 1 µM [19]: 12%
growth at 1 µM [20]: 17%
growth at 1 µM [21]: 15%
growth at 100 µM [22]: -68%
growth at 100 µM [23]: -88%
growth at 100 µM [24]: -88%
growth at 100 µM [25]: -81%
growth at 100 µM [26]: -83%
growth at 100 µM [27]: -22%
growth at 100 µM [28]: -80%
growth at 100 µM [29]: -61%
growth at 100 µM [30]: -25%
